Legend:
Assay type in all cases: functional, cell-based
Conditions in all cases: hamster
[1] = molecular target: T1, Hepatic sodium/bile acid cotransporter (Rattus norvegicus, UniProt P26435); test: TP_TRANSPORTER: inhibition of Taurocholate uptake (Taurocholate: 2.5 uM, E1S: 200 uM) in Ntcp-expressing CHO cells
T1 sequence (P26435 whole entry): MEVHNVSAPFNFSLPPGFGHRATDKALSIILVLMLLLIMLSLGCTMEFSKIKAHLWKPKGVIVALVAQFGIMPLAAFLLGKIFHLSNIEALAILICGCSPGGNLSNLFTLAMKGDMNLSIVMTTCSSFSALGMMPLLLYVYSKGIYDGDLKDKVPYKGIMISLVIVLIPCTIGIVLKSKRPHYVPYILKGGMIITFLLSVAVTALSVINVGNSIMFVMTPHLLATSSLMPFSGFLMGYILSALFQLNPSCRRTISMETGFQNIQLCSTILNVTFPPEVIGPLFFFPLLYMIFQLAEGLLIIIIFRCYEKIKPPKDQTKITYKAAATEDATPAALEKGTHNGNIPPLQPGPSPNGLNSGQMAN

[2] = molecular target: T1, Hepatic sodium/bile acid cotransporter; test: TP_TRANSPORTER: inhibition of Taurocholate uptake (Taurocholate: 2.5 uM, Estradiol-3-sulfate: 68 uM) in Ntcp-expressing CHO cells
[3] = molecular target: T1, Hepatic sodium/bile acid cotransporter; test: TP_TRANSPORTER: inhibition of Taurocholate uptake (Taurocholate: 2.5 uM, Testosterone: 200 uM) in Ntcp-expressing CHO cells
[4] = molecular target: T1, Hepatic sodium/bile acid cotransporter; test: TP_TRANSPORTER: inhibition of Taurocholate uptake (Taurocholate: 2.5 uM, Progesterone: 200 uM) in Ntcp-expressing CHO cells

## C[C@]12CC[C@@H]3c4ccc(OS(=O)(=O)O)cc4CC[C@H]3[C@@H]1CCC2=O [ESTRONE SULFURIC ACID]
[1]
  Activity: inhibitor [(at a rough estmate) 30 % of control]

## C[C@]12CC[C@@H]3c4ccc(OS(=O)(=O)O)cc4CC[C@H]3[C@@H]1CC[C@@H]2O
[2]
  Activity: inhibitor [(at a rough estmate) 5 % of control]

## C[C@]12CC[C@H]3[C@@H](CCC4=CC(=O)CC[C@@]43C)[C@@H]1CC[C@@H]2O [TESTOSTERONE]
[3]
  Activity: inhibitor [(at a rough estmate) 50 % of control]

## CC(=O)[C@H]1CC[C@H]2[C@@H]3CCC4=CC(=O)CC[C@]4(C)[C@H]3CC[C@]12C [PROGESTERONE]
[4]
  Activity: inhibitor [(at a rough estmate) 70 % of control]

Source: ChEMBL document CHEMBL2074562, “Substrate specificity of the rat liver Na(+)-bile salt cotransporter in Xenopus laevis oocytes and in CHO cells” (Am J Physiol, 1998)
